From ChEMBL document CHEMBL2040724, “New synthesis and promising neuroprotective role in experimental ischemic stroke of ONO-1714” (Eur J Med Chem, 2012) come the findings set out here.

Calls of active or inactive are those of the source. No cut-off for these calls is given here.

Data set [1] can be described thus: Cytotoxicity against CD-1 mouse peritoneal macrophages assessed as survival rate at 100 uM after 48 hrs by SRB assay. Type of data set: cell-based, Peritoneal macrophage cell. The note with it: read-out: Activity. (The SRB assay estimates cell density from bound dye.)
A short description of data set [2]: Cytotoxicity against CD-1 mouse peritoneal macrophages assessed as survival rate at 1 uM after 48 hrs by SRB assay. Type of data set: cell-based, Peritoneal macrophage cell. The note with it: read-out: Activity.
Data set [3] can be described thus: Cytotoxicity against CD-1 mouse peritoneal macrophages assessed as survival rate at 0.1 uM after 48 hrs by SRB assay. Type of data set: cell-based, Peritoneal macrophage cell. As to conditions: read-out: Activity.
Data set [4] deals with T1, Nitric oxide synthase, inducible (Mus musculus, UniProt P29477).
T1 sequence (P29477 whole entry): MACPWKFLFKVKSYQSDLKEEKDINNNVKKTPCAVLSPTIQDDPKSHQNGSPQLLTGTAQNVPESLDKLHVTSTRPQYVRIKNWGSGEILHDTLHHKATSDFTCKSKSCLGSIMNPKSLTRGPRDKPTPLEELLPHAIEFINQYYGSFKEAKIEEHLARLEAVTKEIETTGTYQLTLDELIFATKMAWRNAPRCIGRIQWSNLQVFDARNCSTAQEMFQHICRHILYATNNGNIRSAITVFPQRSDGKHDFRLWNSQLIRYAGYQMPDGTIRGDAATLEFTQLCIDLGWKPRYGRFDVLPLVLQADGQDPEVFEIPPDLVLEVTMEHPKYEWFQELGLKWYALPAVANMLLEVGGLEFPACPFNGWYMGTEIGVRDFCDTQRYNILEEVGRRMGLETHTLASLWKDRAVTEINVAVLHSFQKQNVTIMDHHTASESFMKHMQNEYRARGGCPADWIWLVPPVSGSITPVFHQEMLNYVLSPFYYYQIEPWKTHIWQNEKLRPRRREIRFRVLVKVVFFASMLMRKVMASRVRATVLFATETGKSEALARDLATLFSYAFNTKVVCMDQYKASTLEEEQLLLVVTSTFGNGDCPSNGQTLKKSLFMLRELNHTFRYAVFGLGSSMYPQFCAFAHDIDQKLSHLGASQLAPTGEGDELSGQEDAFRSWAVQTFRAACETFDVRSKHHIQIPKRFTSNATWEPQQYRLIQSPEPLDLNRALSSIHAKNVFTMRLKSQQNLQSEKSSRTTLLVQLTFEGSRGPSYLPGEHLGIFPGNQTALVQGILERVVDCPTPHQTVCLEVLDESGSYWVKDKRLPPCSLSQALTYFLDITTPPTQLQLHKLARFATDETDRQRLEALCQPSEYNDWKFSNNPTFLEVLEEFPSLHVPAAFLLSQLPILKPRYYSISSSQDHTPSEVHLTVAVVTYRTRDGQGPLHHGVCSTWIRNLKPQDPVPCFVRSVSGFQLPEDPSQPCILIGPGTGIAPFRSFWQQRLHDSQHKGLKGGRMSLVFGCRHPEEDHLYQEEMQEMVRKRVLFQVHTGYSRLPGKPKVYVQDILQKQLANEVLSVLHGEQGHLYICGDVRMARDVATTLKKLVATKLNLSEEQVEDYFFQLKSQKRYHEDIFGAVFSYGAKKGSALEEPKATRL
The experiment in a line: Inhibition of mouse recombinant iNOS activity assessed as conversion of [14C]-L-arginine to [14C]-L-citrulline by liquid scintillation counting.

The nature of data set [5]: Cytotoxicity against CD-1 mouse peritoneal macrophages assessed as survival rate at 10 uM after 48 hrs by SRB assay. As to conditions: read-out: Activity. Type of data set: cell-based, Peritoneal macrophage cell.
For data set [6], the target named is Nitric oxide synthase, inducible (Rattus norvegicus, UniProt Q06518). Briefly: Inhibition of rat iNOS.
In data set [7] the target is Nitric oxide synthase, inducible (Homo sapiens, UniProt P35228). The experiment in a line: Inhibition of human iNOS.
Data set [8] deals with Peritoneal macrophage cell. The experiment in a line: Inhibition of LPS/INFgamma-induced nitric oxide production in CD-1 mouse peritoneal macrophages after 48 hrs by Griess reaction. The note with it: CD-1, Peritoneal macrophage cell. (In general: Nitrite, measured by Griess reagent, commonly stands in for NO production.)
A further data set concerns Mus musculus. The experiment in a line: Neuroprotective activity in permanent middle cerebral artery occlusion model of CD-1 mouse brain assessed as reduction of infarct volume administered subcutaneously by using Alzet mini-osmotic pumps for 21 days before and 48 hrs after pMCAO by TTC staining. Type of data set: functional, organism-based.

Chain of Nitric oxide synthase, inducible (Rattus norvegicus, UniProt Q06518) (Q06518 whole entry): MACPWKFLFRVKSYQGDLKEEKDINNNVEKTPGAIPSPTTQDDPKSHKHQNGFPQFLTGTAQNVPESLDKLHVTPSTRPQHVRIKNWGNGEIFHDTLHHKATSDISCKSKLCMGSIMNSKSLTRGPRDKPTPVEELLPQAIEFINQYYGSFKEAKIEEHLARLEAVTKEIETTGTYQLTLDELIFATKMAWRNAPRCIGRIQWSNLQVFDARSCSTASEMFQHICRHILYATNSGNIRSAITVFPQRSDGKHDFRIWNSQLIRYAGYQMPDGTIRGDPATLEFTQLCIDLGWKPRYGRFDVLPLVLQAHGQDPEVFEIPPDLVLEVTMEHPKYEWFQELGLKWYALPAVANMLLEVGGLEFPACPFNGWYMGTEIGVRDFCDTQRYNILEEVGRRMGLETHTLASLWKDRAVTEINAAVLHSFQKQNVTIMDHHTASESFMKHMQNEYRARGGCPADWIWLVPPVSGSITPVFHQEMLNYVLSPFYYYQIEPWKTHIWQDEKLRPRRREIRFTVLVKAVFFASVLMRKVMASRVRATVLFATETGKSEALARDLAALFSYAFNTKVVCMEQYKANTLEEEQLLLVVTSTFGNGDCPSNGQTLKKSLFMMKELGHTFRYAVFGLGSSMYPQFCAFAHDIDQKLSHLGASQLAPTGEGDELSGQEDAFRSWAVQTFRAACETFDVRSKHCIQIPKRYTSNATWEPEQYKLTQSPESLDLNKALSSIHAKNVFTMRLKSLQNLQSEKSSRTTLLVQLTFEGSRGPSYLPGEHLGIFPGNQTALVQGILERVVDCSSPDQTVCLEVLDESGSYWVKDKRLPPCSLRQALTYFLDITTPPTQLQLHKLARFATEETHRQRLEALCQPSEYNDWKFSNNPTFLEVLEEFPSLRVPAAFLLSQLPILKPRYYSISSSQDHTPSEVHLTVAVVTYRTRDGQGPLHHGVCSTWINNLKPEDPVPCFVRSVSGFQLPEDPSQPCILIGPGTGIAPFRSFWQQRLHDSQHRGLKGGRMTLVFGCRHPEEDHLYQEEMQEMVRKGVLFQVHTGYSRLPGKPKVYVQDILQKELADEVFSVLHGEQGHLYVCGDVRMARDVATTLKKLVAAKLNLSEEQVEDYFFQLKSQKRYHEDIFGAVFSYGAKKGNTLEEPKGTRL
Chain of Nitric oxide synthase, inducible (Homo sapiens, UniProt P35228) (P35228 whole entry): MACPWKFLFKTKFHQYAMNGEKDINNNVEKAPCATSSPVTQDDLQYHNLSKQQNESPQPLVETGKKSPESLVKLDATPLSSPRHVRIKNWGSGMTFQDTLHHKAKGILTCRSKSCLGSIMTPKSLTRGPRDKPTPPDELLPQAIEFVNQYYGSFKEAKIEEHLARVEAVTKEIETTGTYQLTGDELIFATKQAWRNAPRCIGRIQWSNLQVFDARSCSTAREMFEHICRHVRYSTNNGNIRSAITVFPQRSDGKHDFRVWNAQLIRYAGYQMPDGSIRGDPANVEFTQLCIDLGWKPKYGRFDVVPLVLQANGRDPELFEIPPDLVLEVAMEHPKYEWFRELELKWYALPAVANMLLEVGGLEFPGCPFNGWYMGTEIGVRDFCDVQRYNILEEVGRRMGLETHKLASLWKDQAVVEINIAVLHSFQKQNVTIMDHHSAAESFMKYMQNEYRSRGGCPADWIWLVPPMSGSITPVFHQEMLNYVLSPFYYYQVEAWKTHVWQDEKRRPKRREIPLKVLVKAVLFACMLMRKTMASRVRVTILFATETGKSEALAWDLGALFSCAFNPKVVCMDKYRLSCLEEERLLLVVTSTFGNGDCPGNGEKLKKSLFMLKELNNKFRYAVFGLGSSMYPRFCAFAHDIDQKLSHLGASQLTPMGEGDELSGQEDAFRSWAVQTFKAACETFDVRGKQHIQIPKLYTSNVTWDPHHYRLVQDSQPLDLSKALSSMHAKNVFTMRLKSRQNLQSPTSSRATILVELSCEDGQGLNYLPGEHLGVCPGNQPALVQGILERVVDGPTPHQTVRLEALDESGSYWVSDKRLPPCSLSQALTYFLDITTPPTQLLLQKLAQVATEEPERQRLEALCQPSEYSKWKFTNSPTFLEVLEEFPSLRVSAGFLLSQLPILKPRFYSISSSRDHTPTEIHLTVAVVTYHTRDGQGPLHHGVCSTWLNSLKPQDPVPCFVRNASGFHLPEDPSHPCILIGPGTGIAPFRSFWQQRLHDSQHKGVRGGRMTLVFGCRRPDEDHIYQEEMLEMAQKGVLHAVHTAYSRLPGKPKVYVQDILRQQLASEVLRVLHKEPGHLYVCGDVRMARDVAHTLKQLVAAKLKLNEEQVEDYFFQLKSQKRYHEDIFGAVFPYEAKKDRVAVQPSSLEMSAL

The term IC50 denotes the concentration at which inhibition is half-maximal. In general, Ki refers to a measure of affinity in units of concentration, obtained from inhibition or displacement. Low values mean a stronger hold on the target, high ones a looser hold on the target. For `C[C@H]1CC(=N)N[C@@H]2[C@H](Cl)[C@@H]21`, in [1], the viability at 48 h, 100 µM was found to be 97.2%. Also, the viability at 48 h, 1 µM in data set [2] turned out to be 93.6%. In data set [3], the viability at 48 h, 0.1 µM worked out at 98.4%. The IC50 in data set [4] came out at 11 nM. Besides, the viability at 48 h, 10 µM in data set [5] was 99.1%. In addition, the Ki in data set [6] and in data set [7] was 1.8 nM each time.
In turn, `C[C@H]1CC(N)=N[C@@H]2[C@H](Cl)[C@@H]21` gave an IC50 in data set [8] of 820 nM. Moreover, the result in the data set on Mus musculus was Active.
